Activity calls are given as the source filed them.
How the values were obtained:
[1] = target: Myosin-14 (Homo sapiens, UniProt Q7Z406)
[2] = target: T1, ATP-dependent RNA helicase DHX30 (Homo sapiens, UniProt Q7L2E3)
T1 sequence (Q7L2E3 whole entry): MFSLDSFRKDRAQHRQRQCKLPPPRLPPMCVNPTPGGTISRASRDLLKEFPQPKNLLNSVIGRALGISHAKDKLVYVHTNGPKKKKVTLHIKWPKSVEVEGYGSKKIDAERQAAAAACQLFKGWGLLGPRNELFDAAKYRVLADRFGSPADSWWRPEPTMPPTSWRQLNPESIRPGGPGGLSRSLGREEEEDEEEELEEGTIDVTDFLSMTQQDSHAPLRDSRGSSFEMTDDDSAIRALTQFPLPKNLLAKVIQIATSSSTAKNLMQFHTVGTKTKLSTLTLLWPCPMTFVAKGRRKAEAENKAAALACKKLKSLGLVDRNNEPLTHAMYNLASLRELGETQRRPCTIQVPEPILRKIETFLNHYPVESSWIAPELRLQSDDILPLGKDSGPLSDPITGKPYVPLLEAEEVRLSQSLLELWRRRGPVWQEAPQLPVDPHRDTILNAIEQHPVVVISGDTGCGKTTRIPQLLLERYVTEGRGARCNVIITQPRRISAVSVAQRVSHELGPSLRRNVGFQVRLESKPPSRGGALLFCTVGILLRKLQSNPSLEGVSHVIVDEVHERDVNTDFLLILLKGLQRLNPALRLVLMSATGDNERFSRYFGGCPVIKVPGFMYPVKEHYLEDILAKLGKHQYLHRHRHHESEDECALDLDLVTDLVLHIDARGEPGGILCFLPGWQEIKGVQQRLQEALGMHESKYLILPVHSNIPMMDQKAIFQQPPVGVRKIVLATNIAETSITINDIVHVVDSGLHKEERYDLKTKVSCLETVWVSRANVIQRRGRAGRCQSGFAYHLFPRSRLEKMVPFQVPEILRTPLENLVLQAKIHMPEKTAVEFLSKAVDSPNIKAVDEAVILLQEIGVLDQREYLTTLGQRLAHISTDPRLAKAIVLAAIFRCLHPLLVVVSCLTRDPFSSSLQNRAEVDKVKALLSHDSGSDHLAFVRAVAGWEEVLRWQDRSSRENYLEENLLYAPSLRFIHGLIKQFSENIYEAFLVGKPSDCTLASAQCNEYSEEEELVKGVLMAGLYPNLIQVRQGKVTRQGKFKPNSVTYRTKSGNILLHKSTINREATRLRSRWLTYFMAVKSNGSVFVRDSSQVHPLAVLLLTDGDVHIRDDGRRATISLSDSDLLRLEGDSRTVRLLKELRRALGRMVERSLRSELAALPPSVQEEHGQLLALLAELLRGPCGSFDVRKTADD

[3] = target: T2, Serine/threonine-protein kinase TAO2 (Homo sapiens, UniProt Q9UL54)
T2 sequence (Q9UL54 whole entry): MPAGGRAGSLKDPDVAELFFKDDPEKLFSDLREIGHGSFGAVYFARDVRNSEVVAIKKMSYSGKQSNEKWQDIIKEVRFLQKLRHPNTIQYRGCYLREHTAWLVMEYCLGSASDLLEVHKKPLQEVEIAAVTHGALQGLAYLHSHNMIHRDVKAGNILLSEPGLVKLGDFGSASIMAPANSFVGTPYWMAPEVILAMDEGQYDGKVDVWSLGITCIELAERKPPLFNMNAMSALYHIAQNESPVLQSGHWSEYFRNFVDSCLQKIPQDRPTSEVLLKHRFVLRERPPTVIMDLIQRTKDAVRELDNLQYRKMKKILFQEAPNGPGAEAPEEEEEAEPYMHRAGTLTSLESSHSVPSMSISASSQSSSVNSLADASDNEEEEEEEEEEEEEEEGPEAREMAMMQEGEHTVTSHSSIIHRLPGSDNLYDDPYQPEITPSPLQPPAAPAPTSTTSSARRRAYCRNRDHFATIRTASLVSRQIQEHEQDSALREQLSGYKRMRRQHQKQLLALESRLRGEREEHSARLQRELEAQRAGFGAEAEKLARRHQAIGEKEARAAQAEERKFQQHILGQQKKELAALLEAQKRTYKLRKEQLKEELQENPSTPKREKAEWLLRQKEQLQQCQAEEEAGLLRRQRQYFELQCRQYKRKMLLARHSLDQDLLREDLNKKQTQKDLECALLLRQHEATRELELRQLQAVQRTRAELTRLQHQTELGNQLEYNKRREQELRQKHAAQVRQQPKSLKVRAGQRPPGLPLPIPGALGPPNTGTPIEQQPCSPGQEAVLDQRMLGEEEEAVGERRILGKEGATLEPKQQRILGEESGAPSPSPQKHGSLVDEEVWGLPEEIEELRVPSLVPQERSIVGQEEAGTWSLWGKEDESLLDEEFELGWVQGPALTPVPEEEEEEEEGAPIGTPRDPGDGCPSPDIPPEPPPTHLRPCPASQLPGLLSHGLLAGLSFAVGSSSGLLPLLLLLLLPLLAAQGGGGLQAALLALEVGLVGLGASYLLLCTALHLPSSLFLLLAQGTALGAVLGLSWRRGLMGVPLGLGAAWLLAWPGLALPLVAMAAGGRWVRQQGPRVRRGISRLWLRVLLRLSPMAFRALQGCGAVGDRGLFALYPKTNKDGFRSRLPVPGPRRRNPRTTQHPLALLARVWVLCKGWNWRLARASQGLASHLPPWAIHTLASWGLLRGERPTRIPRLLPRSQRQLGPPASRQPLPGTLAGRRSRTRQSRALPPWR

[4] = target: Atypical kinase COQ8A, mitochondrial (Homo sapiens, UniProt Q8NI60)
[5] = target: Rho-associated protein kinase 1 (Homo sapiens, UniProt Q13464)
[6] = target: cAMP-dependent protein kinase type II-alpha regulatory subunit (Homo sapiens, UniProt P13861)
[7] = target: T3, Scaffold protein ILK (Homo sapiens, UniProt Q13418)
T3 sequence (Q13418 whole entry): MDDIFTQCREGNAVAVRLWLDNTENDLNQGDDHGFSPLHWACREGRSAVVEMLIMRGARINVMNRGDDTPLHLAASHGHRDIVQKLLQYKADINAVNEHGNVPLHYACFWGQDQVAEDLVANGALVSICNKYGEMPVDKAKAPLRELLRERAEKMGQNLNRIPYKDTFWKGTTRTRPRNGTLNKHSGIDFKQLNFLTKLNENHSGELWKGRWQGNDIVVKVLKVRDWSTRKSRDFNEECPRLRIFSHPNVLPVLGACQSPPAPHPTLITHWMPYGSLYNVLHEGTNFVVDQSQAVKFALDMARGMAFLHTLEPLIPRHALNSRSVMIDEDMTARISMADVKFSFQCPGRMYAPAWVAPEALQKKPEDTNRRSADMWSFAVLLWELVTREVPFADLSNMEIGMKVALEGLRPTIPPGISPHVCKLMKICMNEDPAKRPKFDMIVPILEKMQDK
Note: in the data inactive means no Kd found up to 30 µM.

Sequence of cAMP-dependent protein kinase type II-alpha regulatory subunit (P13861 whole entry): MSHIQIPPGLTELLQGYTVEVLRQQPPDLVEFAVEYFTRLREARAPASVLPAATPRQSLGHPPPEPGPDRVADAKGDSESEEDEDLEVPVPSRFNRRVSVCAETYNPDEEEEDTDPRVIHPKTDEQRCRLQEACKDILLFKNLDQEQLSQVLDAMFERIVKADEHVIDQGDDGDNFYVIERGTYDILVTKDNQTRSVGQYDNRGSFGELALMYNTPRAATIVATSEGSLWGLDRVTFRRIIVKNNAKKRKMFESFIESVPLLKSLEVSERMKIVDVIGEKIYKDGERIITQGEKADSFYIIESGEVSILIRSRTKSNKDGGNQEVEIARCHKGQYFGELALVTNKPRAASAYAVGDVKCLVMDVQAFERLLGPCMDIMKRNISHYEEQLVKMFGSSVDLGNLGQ
Sequence of Rho-associated protein kinase 1 (Q13464 whole entry): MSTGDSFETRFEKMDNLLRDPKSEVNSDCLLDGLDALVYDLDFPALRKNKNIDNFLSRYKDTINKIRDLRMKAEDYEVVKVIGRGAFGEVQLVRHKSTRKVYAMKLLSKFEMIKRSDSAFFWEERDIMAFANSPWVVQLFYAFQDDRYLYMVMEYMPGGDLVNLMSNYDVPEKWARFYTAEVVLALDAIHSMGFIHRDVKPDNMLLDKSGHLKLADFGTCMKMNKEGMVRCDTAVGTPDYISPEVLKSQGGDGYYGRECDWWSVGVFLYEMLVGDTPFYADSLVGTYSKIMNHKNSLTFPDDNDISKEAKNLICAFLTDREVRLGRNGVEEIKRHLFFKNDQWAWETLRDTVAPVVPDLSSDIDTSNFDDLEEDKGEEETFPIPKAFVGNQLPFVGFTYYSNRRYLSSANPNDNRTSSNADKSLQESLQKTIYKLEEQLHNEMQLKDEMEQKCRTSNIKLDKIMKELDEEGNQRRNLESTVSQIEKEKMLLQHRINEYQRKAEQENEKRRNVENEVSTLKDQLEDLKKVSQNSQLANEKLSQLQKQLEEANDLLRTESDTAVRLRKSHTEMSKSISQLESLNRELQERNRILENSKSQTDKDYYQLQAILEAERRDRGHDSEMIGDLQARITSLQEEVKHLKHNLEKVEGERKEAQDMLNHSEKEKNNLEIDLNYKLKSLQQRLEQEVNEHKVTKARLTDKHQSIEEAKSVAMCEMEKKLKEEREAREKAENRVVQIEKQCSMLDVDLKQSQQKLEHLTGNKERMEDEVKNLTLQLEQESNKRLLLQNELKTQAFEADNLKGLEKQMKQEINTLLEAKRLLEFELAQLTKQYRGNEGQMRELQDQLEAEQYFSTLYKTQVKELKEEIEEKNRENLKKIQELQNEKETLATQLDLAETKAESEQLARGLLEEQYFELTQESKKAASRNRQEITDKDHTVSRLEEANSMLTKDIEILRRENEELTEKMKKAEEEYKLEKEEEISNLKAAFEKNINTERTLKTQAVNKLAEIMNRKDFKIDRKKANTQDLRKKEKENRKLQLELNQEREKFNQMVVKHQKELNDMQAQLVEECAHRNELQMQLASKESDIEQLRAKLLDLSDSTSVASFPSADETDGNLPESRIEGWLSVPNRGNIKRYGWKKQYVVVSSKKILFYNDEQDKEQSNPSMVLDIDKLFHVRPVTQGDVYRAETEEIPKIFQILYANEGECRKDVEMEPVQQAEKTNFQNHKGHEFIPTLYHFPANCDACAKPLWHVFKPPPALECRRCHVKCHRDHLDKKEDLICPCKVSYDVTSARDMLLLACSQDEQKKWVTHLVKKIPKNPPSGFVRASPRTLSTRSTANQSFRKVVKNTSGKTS
Sequence of Atypical kinase COQ8A, mitochondrial (Q8NI60 whole entry): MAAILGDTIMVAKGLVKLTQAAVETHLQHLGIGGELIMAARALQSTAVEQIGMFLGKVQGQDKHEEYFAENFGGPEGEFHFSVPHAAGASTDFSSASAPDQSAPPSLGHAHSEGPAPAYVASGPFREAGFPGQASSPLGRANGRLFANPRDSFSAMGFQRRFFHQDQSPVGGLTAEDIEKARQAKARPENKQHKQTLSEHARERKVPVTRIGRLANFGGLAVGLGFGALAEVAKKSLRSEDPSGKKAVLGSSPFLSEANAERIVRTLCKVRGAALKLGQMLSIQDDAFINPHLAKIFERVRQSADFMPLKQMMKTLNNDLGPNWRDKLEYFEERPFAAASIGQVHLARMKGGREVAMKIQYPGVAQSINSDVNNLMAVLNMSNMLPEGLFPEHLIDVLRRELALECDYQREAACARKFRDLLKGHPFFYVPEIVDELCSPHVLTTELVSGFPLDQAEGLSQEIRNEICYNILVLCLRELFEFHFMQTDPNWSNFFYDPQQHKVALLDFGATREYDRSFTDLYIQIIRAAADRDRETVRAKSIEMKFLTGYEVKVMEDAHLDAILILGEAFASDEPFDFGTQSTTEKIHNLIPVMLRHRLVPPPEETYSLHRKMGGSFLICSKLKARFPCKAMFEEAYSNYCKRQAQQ
Sequence of Myosin-14 (Q7Z406 whole entry): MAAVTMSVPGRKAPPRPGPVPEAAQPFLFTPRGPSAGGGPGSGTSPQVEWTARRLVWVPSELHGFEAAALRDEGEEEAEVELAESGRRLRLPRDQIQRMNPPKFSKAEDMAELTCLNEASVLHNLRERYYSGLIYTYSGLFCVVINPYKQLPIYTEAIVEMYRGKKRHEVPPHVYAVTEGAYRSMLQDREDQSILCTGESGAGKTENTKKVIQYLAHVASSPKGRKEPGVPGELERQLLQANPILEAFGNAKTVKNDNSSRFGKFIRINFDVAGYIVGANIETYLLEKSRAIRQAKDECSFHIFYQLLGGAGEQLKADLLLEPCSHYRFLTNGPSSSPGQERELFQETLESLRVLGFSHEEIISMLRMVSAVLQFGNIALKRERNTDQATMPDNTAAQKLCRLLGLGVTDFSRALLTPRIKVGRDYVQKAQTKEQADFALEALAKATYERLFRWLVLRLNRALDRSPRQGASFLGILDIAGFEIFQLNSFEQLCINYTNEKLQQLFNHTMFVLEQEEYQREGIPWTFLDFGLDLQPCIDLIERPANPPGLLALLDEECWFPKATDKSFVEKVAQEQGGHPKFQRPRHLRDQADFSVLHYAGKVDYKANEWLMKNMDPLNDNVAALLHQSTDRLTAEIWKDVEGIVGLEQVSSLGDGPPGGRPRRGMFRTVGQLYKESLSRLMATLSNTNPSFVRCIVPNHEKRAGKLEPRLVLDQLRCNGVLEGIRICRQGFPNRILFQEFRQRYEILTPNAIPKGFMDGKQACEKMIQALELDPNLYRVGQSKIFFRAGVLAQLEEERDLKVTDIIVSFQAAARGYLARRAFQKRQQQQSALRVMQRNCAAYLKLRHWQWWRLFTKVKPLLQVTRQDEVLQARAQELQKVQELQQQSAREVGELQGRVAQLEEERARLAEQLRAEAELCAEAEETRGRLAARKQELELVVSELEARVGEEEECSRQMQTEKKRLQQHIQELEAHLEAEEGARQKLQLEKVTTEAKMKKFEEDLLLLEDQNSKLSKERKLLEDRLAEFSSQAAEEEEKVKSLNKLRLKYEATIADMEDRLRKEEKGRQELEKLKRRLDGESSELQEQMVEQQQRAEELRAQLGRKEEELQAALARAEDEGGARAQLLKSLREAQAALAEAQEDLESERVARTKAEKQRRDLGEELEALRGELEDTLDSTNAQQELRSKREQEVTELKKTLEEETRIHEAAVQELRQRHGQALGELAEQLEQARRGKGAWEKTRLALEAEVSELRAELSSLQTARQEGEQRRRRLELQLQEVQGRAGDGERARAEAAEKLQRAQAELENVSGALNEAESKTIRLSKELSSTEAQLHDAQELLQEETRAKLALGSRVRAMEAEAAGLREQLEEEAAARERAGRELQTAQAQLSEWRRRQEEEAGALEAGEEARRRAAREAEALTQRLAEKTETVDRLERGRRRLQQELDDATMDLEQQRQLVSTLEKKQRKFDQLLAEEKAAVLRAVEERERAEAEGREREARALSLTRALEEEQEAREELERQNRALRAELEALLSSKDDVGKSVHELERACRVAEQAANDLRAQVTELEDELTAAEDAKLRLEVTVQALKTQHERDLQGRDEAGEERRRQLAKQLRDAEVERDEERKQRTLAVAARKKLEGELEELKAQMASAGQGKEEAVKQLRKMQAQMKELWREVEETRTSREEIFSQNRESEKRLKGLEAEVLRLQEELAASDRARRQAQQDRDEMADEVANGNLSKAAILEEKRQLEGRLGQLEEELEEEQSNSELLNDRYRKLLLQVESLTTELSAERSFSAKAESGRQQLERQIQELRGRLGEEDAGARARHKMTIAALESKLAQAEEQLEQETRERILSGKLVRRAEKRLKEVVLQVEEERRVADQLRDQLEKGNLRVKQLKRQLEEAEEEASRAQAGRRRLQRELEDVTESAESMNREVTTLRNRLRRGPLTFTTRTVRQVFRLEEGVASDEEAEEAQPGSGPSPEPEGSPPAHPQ

Kd [1] | Kd [2] | Kd [3] | Kd [4] | Kd [5] | Kd [6] | Kd [7] | SMILES
> 30 µM (inactive) | > 30 µM (inactive) | > 30 µM (inactive) | > 30 µM (inactive) |  | > 30 µM (inactive) | > 30 µM (inactive) | O=C(Nc1ccc(-c2ccnc(Nc3ccc(N4CCOCC4)cc3)n2)cc1)C1CCCN1 (stereo unspecified) [XL-019]
> 30 µM (inactive) | > 30 µM (inactive) |  | > 30 µM (inactive) |  | > 30 µM (inactive) | > 30 µM (inactive) | Cc1cc(Nc2cc(N3CCN(C)CC3)nc(/C=C/c3ccccc3)n2)n[nH]1 [ENMD-2076]
> 30 µM (inactive) | > 30 µM (inactive) | > 30 µM (inactive) | > 30 µM (inactive) |  | > 30 µM (inactive) | > 30 µM (inactive) | OCCn1cc(-c2cnc3nnn(Cc4ccc5ncccc5c4)c3n2)cn1 [PF-04217903]
> 30 µM (inactive) | > 30 µM (inactive) | > 30 µM (inactive) | > 30 µM (inactive) | > 30 µM (inactive) |  | > 30 µM (inactive) | CNC(=O)c1ccc(C)c(-n2c(C)cc(OCc3ccc(F)cc3F)c(Br)c2=O)c1 [PH-797804]
> 30 µM (inactive) | > 30 µM (inactive) | > 30 µM (inactive) | > 30 µM (inactive) |  | > 30 µM (inactive) | > 30 µM (inactive) | COc1cc(CCc2cc(NC(=O)c3ccc(N4C[C@@H](C)N[C@@H](C)C4)cc3)n[nH]2)cc(OC)c1 [AZD-4547]

Further lines, the molecule ahead of its results:

SMILES | Kd [1] | Kd [2] | Kd [3] | Kd [4] | Kd [5] | Kd [6] | Kd [7]
CN1N=C(N)c2cn([C@@H]3O[C@H](COP(=O)(O)O)[C@@H](O)[C@H]3O)c3ncnc1c23 [TRICIRIBINE PHOSPHATE] | > 30 µM (inactive) | > 30 µM (inactive) | > 30 µM (inactive) | > 30 µM (inactive) | > 30 µM (inactive) | > 30 µM (inactive) | 
Cc1ccc(S(=O)(=O)Nc2nc3ccccc3nc2Nc2ccc3nsnc3c2)cc1 |  | > 30 µM (inactive) | > 30 µM (inactive) | > 30 µM (inactive) | > 30 µM (inactive) |  | 
Cc1c(F)cc(C(=O)NC2CC2)cc1-c1ccc(C(=O)NCC(C)(C)C)cn1 [LOSMAPIMOD] |  | > 30 µM (inactive) | > 30 µM (inactive) | > 30 µM (inactive) | > 30 µM (inactive) | > 30 µM (inactive) | > 30 µM (inactive)
C=CC(=O)N1CCC(Oc2cc3c(Nc4ccc(Cl)c(Cl)c4F)ncnc3cc2OC)CC1 [POZIOTINIB] |  | > 30 µM (inactive) | > 30 µM (inactive) | > 30 µM (inactive) | > 30 µM (inactive) |  | 
Nc1nc(N)c2nc(-c3cccc(O)c3)c(-c3cccc(O)c3)nc2n1 [TG100-115] |  | > 30 µM (inactive) |  |  |  | > 30 µM (inactive) | 
O=C(Nc1cccc(Cl)c1)Nc1ncc(CCNc2ncnc3ccsc23)s1 [SNS-314] | > 30 µM (inactive) | > 30 µM (inactive) | > 30 µM (inactive) | > 30 µM (inactive) |  | > 30 µM (inactive) | > 30 µM (inactive)
COc1cc(OC)c(/C=C/S(=O)(=O)Cc2ccc(OC)c(NCC(=O)O)c2)c(OC)c1 [RIGOSERTIB] |  | > 30 µM (inactive) | > 30 µM (inactive) | > 30 µM (inactive) | > 30 µM (inactive) | > 30 µM (inactive) | > 30 µM (inactive)
CN1CCN(c2ccc3nc(-c4c(N)c5c(F)cccc5[nH]c4=O)[nH]c3c2)CC1 [DOVITINIB] | > 30 µM (inactive) | > 30 µM (inactive) |  |  |  | > 30 µM (inactive) | > 30 µM (inactive)
CN(C)C(=O)c1cc2cnc(Nc3ccc(N4CCNCC4)cn3)nc2n1C1CCCC1 [RIBOCICLIB] |  | > 30 µM (inactive) | > 30 µM (inactive) | > 30 µM (inactive) | > 30 µM (inactive) |  | > 30 µM (inactive)
CC[C@H](Nc1ncnc2[nH]cnc12)c1nc2cccc(F)c2c(=O)n1-c1ccccc1 [IDELALISIB] |  | > 30 µM (inactive) | > 30 µM (inactive) | > 30 µM (inactive) | > 30 µM (inactive) | > 30 µM (inactive) | > 30 µM (inactive)
Cc1cc(-c2cc(O)ccc2Cl)cc2nnc(Nc3ccc(OCCN4CCCC4)cc3)nc12 |  | > 30 µM (inactive) | > 30 µM (inactive) | > 30 µM (inactive) | > 30 µM (inactive) | > 30 µM (inactive) | > 30 µM (inactive)
CN1CCC(COc2cnc(-c3cccc(Cn4nc(-c5cccc(C#N)c5)ccc4=O)c3)nc2)CC1 [TEPOTINIB] |  | > 30 µM (inactive) | > 30 µM (inactive) | > 30 µM (inactive) | > 30 µM (inactive) | > 30 µM (inactive) | > 30 µM (inactive)
Cc1cn(-c2cc(NC(=O)c3ccc(C)c(Nc4nccc(-c5cccnc5)n4)c3)cc(C(F)(F)F)c2)cn1 [NILOTINIB] | > 30 µM (inactive) | > 30 µM (inactive) |  |  |  | > 30 µM (inactive) | 0.02 µM
Cc1ccc(NC(=O)c2ccc(CN3CC[C@H](N(C)C)C3)c(C(F)(F)F)c2)cc1Nc1nccc(-c2cncnc2)n1 [BAFETINIB] | > 30 µM (inactive) |  | > 30 µM (inactive) | > 30 µM (inactive) | > 30 µM (inactive) | > 30 µM (inactive) | > 30 µM (inactive)
Cc1ccc(-n2nc(C(C)(C)C)cc2NC(=O)NCc2cc(F)ccc2Oc2ccc3c(cnn3CCO)c2)cc1 [PEXMETINIB] | > 30 µM (inactive) | > 30 µM (inactive) | > 30 µM (inactive) | > 30 µM (inactive) | > 30 µM (inactive) |  | > 30 µM (inactive)

Reference: ChEMBL document CHEMBL3991601, “The target landscape of clinical kinase drugs” (Science, 2017)
